Data: patent US12606528B2, “Methods and materials for inhibiting NF-kB activity” (University of Pittsburgh - Of the Commonwealth System of …, priority 2019, dated 2026)

Tested on: NF-κB
Assay: NF-κB assay: THP1-NF-κB-LUC cells, LPS-stimulated secreted luciferase
Type: cell-based
Settings: THP1-NF-κB-LUC cells, LPS-stimulated; read-out: IC50 (NF-κB assay)
Procedure: FIG. 1 contains line plots showing NF-κB activity of exemplified compounds. 25k THP1-NF-κB-LUC cells were dispensed into 384 well plate (per well). Cells were treated with compounds (2 μM and 0.2 μM) for 2 hours before addition of LPS (10 ng/mL) for 18 hours. Secreted luciferase activity were measured using quant-luc reagents (1 bag of luc reagent dilute to 40 mL, use 10 μL per well). Data were normalized to vehicle control and graphed. Structures of selected exemplified compounds are shown.
FIG. 2 contains heat charts showing NF-κB activity of exemplified compounds as a function of concentration. 25k THP1-NF-κB-LUC cells were dispensed into 384 well plate (per well). Cells were treated with compounds (with serial dilution) for 2 hours before addition of LPS (10 ng/ml) for 18 hours. Secreted luciferase activity were measured using quant-luc reagents (1 bag of luc reagent dilute to 40 mL, use 10 μL per well). Structures of selected exemplified compounds are shown.
25k THP1-NF-κB-LUC cells were dispensed into 384 well plate (per well). Cells were treated with compounds with various concentrations for 2 hours before addition of LPS (10 ng/mL) for 18 hours. Secreted luciferase activity were measured using quant-luc reagents (1 bag of luc reagent dilute to 40 mL, use 10 μL per well). Data were normalized to vehicle control and graphed. Compound IC50 towards inhibiting NF-κB were determined through Prism. Similarly, 10k human PBMCs cells were cultured in 384 well plate (per well). Cells were treated with compounds with various concentrations for 2 hours before addition of LPS (10 ng/ml) for 18 hours, and supernatants were collected and assayed for TNF ELISA. Compound IC50 towards inhibiting TNF release were determined through Prism. • Activity: “+”>10 μM, “++”>1 μM and <10 μM, “+++”>0.1 μM and <1 μM, “++++”<0.1 μM.

Structure (SMILES)	IC50 [nM]
O=C(NCCc1ccccc1)c1ccc2nc(-c3ccc(F)cc3)c(-c3ccc(F)cc3)nc2c1 [BC18435]	100 to 1000
Cc1cccc(-c2nc3ccc(C(=O)N4CCN(c5ncccn5)CC4)cc3nc2-c2cccc(C)c2)c1 [BC18436]	1000 to 10000
O=C(NCCCN1CCOCC1)c1ccc2nc(-c3ccc(F)cc3)c(-c3ccc(F)cc3)nc2c1 [BC18437]	< 100
O=C(NCCCN1CCCC1)c1ccc2nc(-c3ccc(F)cc3)c(-c3ccc(F)cc3)nc2c1 [BC18438]	< 100
O=C(NC1CC1)c1ccc2nc(-c3ccccc3)c(-c3ccccc3)nc2c1 [BC18439]	< 100
CCCN1CCN(C(=O)c2ccc3nc(-c4ccccc4)c(-c4ccccc4)nc3c2)CC1 [BC18440]	< 100
Cc1cccc(-c2nc3ccc(C(=O)NCCN4CCCCC4C)cc3nc2-c2cccc(C)c2)c1 (stereo not drawn) [BC18441]	1000 to 10000
CC(C)CCNC(=O)c1ccc2nc(-c3ccc(F)cc3)c(-c3ccc(F)cc3)nc2c1 [BC18442]	< 100
CC(C)NC(=O)c1ccc2nc(-c3ccccc3)c(-c3ccccc3)nc2c1 [BC18443]	< 100
Cc1ccc(-c2nc3ccc(C(=O)NCc4ccccc4)cc3nc2-c2ccc(C)cc2)cc1 [BC18444]	> 10000
Cc1cccc(CNC(=O)c2ccc3nc(-c4ccccc4)c(-c4ccccc4)nc3c2)c1 [BC18445]	100 to 1000
Cc1cccc(-c2nc3ccc(C(=O)NCc4ccccc4)cc3nc2-c2cccc(C)c2)c1 [BC18446]	> 10000
O=C(NCc1ccccn1)c1ccc2nc(-c3ccc(F)cc3)c(-c3ccc(F)cc3)nc2c1 [BC18447]	< 100
O=C(NC1CC1)c1ccc2nc(-c3ccc(F)cc3)c(-c3ccc(F)cc3)nc2c1 [BC18448]	< 100
O=C(NCCN1CCCC1)c1ccc2nc(-c3ccc(F)cc3)c(-c3ccc(F)cc3)nc2c1 [BC18449]	< 100
CNC(=O)c1ccc2nc(-c3ccccc3)c(-c3ccccc3)nc2c1 [BC18450]	< 100
O=C(c1ccc2nc(-c3ccccc3)c(-c3ccccc3)nc2c1)N1CCN(c2ccc(F)cc2)CC1 [BC18451]	100 to 1000
CCN1CCN(CCNC(=O)c2ccc3nc(-c4cccc(C)c4)c(-c4cccc(C)c4)nc3c2)CC1 [BC18452]	1000 to 10000
COc1ccc(-c2nc3ccc(C(=O)NCCN4CCOCC4)cc3nc2-c2ccc(OC)cc2)cc1 [BC18453]	1000 to 10000
CCCNC(=O)c1ccc2nc(-c3ccccc3)c(-c3ccccc3)nc2c1 [BC18454]	100 to 1000
Cc1ccc(-c2nc3ccc(C(=O)NCc4ccc(Cl)cc4)cc3nc2-c2ccc(C)cc2)cc1 [BC18455]	> 10000
O=C(NCCN1CCCCC1)c1ccc2nc(-c3ccc(F)cc3)c(-c3ccc(F)cc3)nc2c1 [BC18456]	< 100
Cc1cccc(-c2nc3ccc(C(=O)NCc4ccc(Cl)cc4)cc3nc2-c2cccc(C)c2)c1 [BC18457]	> 10000
O=C(NCc1cccnc1)c1ccc2nc(-c3ccc(F)cc3)c(-c3ccc(F)cc3)nc2c1 [BC18458]	< 100
O=C(NCCCN1CCCC1=O)c1ccc2nc(-c3ccc(F)cc3)c(-c3ccc(F)cc3)nc2c1 [BC18459]	< 100

Structure (SMILES)	IC50 [nM]
CN1CCN(CCNC(=O)c2ccc3nc(-c4ccc(F)cc4)c(-c4ccc(F)cc4)nc3c2)CC1 [BC18460]	< 100
O=C(NCCN1CCCCCC1)c1ccc2nc(-c3ccccc3)c(-c3ccccc3)nc2c1 [BC18461]	< 100
O=C(c1ccc2nc(-c3ccccc3)c(-c3ccccc3)nc2c1)N1CCN(C(=O)c2ccco2)CC1 [BC18462]	< 100
Cc1cccc(-c2nc3ccc(C(=O)NCCN4CCN(C)CC4)cc3nc2-c2cccc(C)c2)c1 [BC18463]	1000 to 10000
O=C(NCCN1CCOCC1)c1ccc2nc(-c3ccccc3)c(-c3ccccc3)nc2c1 [BC18464]	< 100
CC(C)CCNC(=O)c1ccc2nc(-c3ccccc3)c(-c3ccccc3)nc2c1 [BC18465]	100 to 1000
Cc1ccc(-c2nc3ccc(C(=O)NCc4ccc(F)cc4)cc3nc2-c2ccc(C)cc2)cc1 [BC18466]	> 10000
CC(CNC(=O)c1ccc2nc(-c3ccc(F)cc3)c(-c3ccc(F)cc3)nc2c1)c1ccccc1 (stereo not drawn) [BC18467]	100 to 1000
Cc1ccc(CNC(=O)c2ccc3nc(-c4cccc(C)c4)c(-c4cccc(C)c4)nc3c2)cc1 [BC18468]	> 10000
CCN(CC)CCCNC(=O)c1ccc2nc(-c3ccc(F)cc3)c(-c3ccc(F)cc3)nc2c1 [BC18469]	< 100
COCCNC(=O)c1ccc2nc(-c3ccc(F)cc3)c(-c3ccc(F)cc3)nc2c1 [BC18470]	< 100
NC(=O)C1CCN(C(=O)c2ccc3nc(-c4ccc(F)cc4)c(-c4ccc(F)cc4)nc3c2)CC1 [BC18471]	< 100
CCN1CCN(CCCNC(=O)c2ccc3nc(-c4ccccc4)c(-c4ccccc4)nc3c2)CC1 [BC18472]	100 to 1000
CCN1CCN(C(=O)c2ccc3nc(-c4ccccc4)c(-c4ccccc4)nc3c2)CC1 [BC18473]	< 100
Cc1cccc(-c2nc3ccc(C(=O)NCCN(C)C4CCCCC4)cc3nc2-c2cccc(C)c2)c1 [BC18474]	1000 to 10000
O=C(NCc1ccccc1)c1ccc2nc(-c3ccccc3)c(-c3ccccc3)nc2c1 [BC18475]	> 10000
O=C(c1ccc2nc(-c3ccccc3)c(-c3ccccc3)nc2c1)N1CCN(c2ccccn2)CC1 [BC18476]	100 to 1000
CCOc1ccc(-c2nc3ccc(C(=O)NCCN(C)C)cc3nc2-c2ccc(OCC)cc2)cc1 [BC18477]	1000 to 10000
CN(C)c1ccc(CNC(=O)c2ccc3nc(-c4ccc(F)cc4)c(-c4ccc(F)cc4)nc3c2)cc1 [BC18478]	100 to 1000
Cc1cccc(-c2nc3ccc(C(=O)NC(C)C)cc3nc2-c2cccc(C)c2)c1 [BC18479]	1000 to 10000
CN(C)CCNC(=O)c1ccc2nc(-c3ccc(F)cc3)c(-c3ccc(F)cc3)nc2c1 [BC18480]	< 100
O=C(NCc1cccs1)c1ccc2nc(-c3ccc(F)cc3)c(-c3ccc(F)cc3)nc2c1 [BC18481]	< 100
CN1CCN(C(=O)c2ccc3nc(-c4ccc(F)cc4)c(-c4ccc(F)cc4)nc3c2)CC1 [BC18482]	< 100
CC1CCCCN1CCNC(=O)c1ccc2nc(-c3ccccc3)c(-c3ccccc3)nc2c1 (stereo not drawn) [BC18483]	< 100
Cc1cccc(-c2nc3ccc(C(=O)NCCN(C)C)cc3nc2-c2cccc(C)c2)c1 [BC18484]	1000 to 10000

Structure (SMILES)	IC50 [nM]
Cc1cccc(-c2nc3ccc(C(=O)NCCN4CCCCC4)cc3nc2-c2cccc(C)c2)c1 [BC18485]	1000 to 10000
Cc1ccc(CNC(=O)c2ccc3nc(-c4ccccc4)c(-c4ccccc4)nc3c2)cc1 [BC18486]	> 10000
CCOC(=O)N1CCN(C(=O)c2ccc3nc(-c4ccccc4)c(-c4ccccc4)nc3c2)CC1 [BC18487]	< 100
CCOc1ccc(-c2nc3ccc(C(=O)NCCN(C)Cc4ccccc4)cc3nc2-c2ccc(OCC)cc2)cc1 [BC18488]	1000 to 10000
Cc1ccc(S(=O)(=O)c2nc(-c3ccccc3)oc2S(=O)(=O)c2ccc(C)cc2)cc1 [BC18500]	< 100
CC(=O)CSc1oc(-c2ccccc2)nc1S(=O)(=O)c1ccc(Cl)cc1 [BC18501]	> 10000
CSc1oc(-c2ccccc2)nc1S(=O)(=O)c1ccc(F)cc1 [BC18502]	> 10000
CC(=O)CSc1oc(-c2ccc(F)cc2)nc1S(=O)(=O)c1ccccc1 [BC18503]	1000 to 10000
O=S(=O)(c1ccccc1)c1nc(-c2ccc(F)cc2)oc1SCc1ccccc1F [BC18504]	1000 to 10000
CCCCSc1oc(-c2ccc(F)cc2)nc1S(=O)(=O)c1ccc(C)cc1 [BC18505]	1000 to 10000
CCCCSc1oc(-c2ccc(F)cc2)nc1S(=O)(=O)c1ccc(F)cc1 [BC18506]	> 10000
CC(C)Sc1oc(-c2ccc(F)cc2)nc1S(=O)(=O)c1ccc(Cl)cc1 [BC18507]	1000 to 10000
CCS(=O)(=O)c1oc(-c2ccc(F)cc2)nc1S(=O)(=O)c1ccccc1 [BC18508]	< 100
CCCCS(=O)(=O)c1oc(-c2ccc(F)cc2)nc1S(=O)(=O)c1ccc(C)cc1 [BC18509]	< 100
CCCCS(=O)(=O)c1oc(-c2ccc(F)cc2)nc1S(=O)(=O)c1ccc(F)cc1 [BC18510]	100 to 1000
CC(C)S(=O)(=O)c1oc(-c2ccc(F)cc2)nc1S(=O)(=O)c1ccc(Br)cc1 [BC18511]	< 100
CCSc1oc(-c2ccccc2)nc1S(=O)(=O)c1ccccc1 [BC18512]	1000 to 10000
CSc1oc(-c2ccccc2)nc1S(=O)(=O)c1ccc(Cl)cc1 [BC18513]	> 10000
CCSc1oc(-c2ccc(C)cc2)nc1S(=O)(=O)c1ccc(F)cc1 [BC18514]	1000 to 10000
CSc1oc(-c2ccc(F)cc2)nc1S(=O)(=O)c1ccccc1 [BC18515]	> 10000
O=C(CSc1oc(-c2ccc(F)cc2)nc1S(=O)(=O)c1ccccc1)c1ccc(Cl)cc1 [BC18516]	1000 to 10000
CCC(C)Sc1oc(-c2ccc(F)cc2)nc1S(=O)(=O)c1ccc(C)cc1 (stereo not drawn) [BC18517]	1000 to 10000
CCC(C)Sc1oc(-c2ccc(F)cc2)nc1S(=O)(=O)c1ccc(F)cc1 (stereo not drawn) [BC18518]	1000 to 10000
CCCCSc1oc(-c2ccc(F)cc2)nc1S(=O)(=O)c1ccc(Cl)cc1 [BC18519]	> 10000
CCCS(=O)(=O)c1oc(-c2ccc(F)cc2)nc1S(=O)(=O)c1ccccc1 [BC18520]	< 100
